From ChEMBL document CHEMBL2424555, “Discovery of novel 4-anilinoquinazoline derivatives as potent inhibitors of epidermal growth factor receptor with antitumor activity” (Bioorg Med Chem, 2013)
pIC50: −log10 of the molar value. Activity calls are given as the source filed them. The calls are words filed in the database; no cut-off is given here.

Experiments:
[1] = target: Epidermal growth factor receptor (Homo sapiens, UniProt P00533); test: Inhibition of recombinant EGFR kinase cytoplasmic domain (unknown origin) expressed in baculovirus expression vector-infected insect sf9 cells assessed as level of autophosphorylation after 10 mins by DELFIA/time-resolved fluorometry
Chain of Epidermal growth factor receptor (P00533 whole entry, the tested form may be a part): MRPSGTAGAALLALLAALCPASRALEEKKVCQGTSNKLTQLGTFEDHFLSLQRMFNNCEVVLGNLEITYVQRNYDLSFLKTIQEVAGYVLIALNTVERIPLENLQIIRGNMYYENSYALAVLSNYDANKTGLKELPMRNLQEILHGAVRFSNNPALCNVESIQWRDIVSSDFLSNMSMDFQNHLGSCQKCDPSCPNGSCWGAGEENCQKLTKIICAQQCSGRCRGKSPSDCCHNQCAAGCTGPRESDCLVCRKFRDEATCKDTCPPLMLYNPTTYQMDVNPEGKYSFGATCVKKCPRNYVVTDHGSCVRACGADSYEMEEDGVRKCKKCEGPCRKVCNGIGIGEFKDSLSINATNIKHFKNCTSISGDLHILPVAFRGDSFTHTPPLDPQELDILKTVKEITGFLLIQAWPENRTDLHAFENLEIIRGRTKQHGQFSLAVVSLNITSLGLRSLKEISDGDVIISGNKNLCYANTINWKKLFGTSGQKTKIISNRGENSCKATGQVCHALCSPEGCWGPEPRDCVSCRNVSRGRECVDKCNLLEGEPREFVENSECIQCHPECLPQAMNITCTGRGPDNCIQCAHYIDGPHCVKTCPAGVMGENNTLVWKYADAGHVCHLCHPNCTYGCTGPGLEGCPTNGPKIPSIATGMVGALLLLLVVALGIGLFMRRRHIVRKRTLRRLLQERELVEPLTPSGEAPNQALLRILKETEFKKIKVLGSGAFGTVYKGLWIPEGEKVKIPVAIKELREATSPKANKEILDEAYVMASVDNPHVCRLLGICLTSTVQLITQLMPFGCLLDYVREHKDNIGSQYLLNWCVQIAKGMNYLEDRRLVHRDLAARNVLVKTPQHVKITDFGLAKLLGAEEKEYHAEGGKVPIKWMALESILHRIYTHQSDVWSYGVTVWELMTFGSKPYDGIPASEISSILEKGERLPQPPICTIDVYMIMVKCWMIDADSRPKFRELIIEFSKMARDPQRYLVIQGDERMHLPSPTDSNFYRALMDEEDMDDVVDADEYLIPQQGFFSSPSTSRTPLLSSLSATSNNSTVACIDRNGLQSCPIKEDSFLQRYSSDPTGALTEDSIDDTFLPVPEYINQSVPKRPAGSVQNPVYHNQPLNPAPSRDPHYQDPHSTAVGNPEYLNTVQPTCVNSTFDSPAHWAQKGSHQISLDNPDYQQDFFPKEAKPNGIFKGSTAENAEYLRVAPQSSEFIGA

HepG2 = test: Antiproliferative activity against human HepG2 cells after 48 hrs by MTT assay; format: functional, cell-based; conditions: HepG2, 48 h
A549 [2] = test: Antiproliferative activity against human A549 cells after 48 hrs by MTT assay; format: functional, cell-based; conditions: A549, 48 h
A549 [3] = test: Induction of apoptosis in human A549 cells assessed as nuclear fragmentation after 24 hrs by Hoechst 33258 staining-based fluorescence microscopy relative to control; format: functional, cell-based
A549 [4] = test: Induction of apoptosis in human A549 cells assessed as nuclear fragmentation at 5 to 20 uM after 24 hrs by Hoechst 33258 staining-based fluorescence microscopy relative to control; format: functional, cell-based
A549 [5] = test: Induction of apoptosis in human A549 cells assessed as nuclear condensation after 24 hrs by Hoechst 33258 staining-based fluorescence microscopy relative to control; format: functional, cell-based
A549 [6] = test: Induction of apoptosis in human A549 cells assessed as nuclear condensation at 5 to 20 uM after 24 hrs by Hoechst 33258 staining-based fluorescence microscopy relative to control; format: functional, cell-based
A549 [7] = test: Induction of apoptosis in human A549 cells assessed as nuclear convolution and budding off into several fragments after 24 hrs by Hoechst 33258 staining-based fluorescence microscopy relative to control; format: functional, cell-based
A549 [8] = test: Induction of apoptosis in human A549 cells assessed as nuclear convolution and budding off into several fragments at 5 to 20 uM after 24 hrs by Hoechst 33258 staining-based fluorescence microscopy relative to control; format: functional, cell-based

pIC50 (HepG2)	pIC50 (A549 [2])	SMILES	pIC50 [1]	also measured
5.11	5.40	CCCCNc1ccc2ncnc(Nc3cccc(Cl)c3)c2c1	–	–
5.32	5.67	Cc1cccc(/C=C/C(=O)Nc2ccc3ncnc(Nc4cccc(Cl)c4)c3c2)n1	–	–
5.11	5.47	O=C(/C=C/c1ncc2ccccc2n1)Nc1ccc2ncnc(Nc3cccc(Cl)c3)c2c1	–	–
5.44	5.97	Cc1cccc(CNc2ccc3ncnc(Nc4cccc(Cl)c4)c3c2)n1	–	–
5.38	5.57	Clc1cccc(Nc2ncnc3ccc(NCc4cccnc4)cc23)c1	–	–
5.25	5.77	Clc1cccc(Nc2ncnc3ccc(NCc4ncc5ccccc5n4)cc23)c1	–	–
4.97	5.38	O=C(/C=C/c1cccc(Br)n1)Nc1ccc2ncnc(Nc3cccc(Cl)c3)c2c1	–	–
5.15	5.44	O=C(/C=C/c1c[nH]c2ccccc12)Nc1ccc2ncnc(Nc3cccc(Cl)c3)c2c1	–	–
5.28	5.63	Clc1cccc(Nc2ncnc3ccc(NCc4c[nH]c5ccccc45)cc23)c1	–	–

Further lines, the compound ahead of its results:

SMILES	pIC50 (HepG2)	pIC50 (A549 [2])	pIC50 [1]	also measured
O=C(/C=C/c1ccc(Br)s1)Nc1ccc2ncnc(Nc3cccc(Cl)c3)c2c1	5.05	5.80	5.62	–
Clc1cccc(Nc2ncnc3ccc(NCc4ccc(Br)s4)cc23)c1	5.51	6.09	5.82	Activity (A549 [3]): Dose-dependent effect; Activity (A549 [4]): Active; Activity (A549 [5]): Dose-dependent effect; Activity (A549 [6]): Active; Activity (A549 [7]): Dose-dependent effect; Activity (A549 [8]): Active
O=C(/C=C/c1cccnc1Cl)Nc1ccc2ncnc(Nc3cccc(Cl)c3)c2c1	5.35	5.53	5.44	–
O=C(/C=C/c1cccnc1)Nc1ccc2ncnc(Nc3cccc(Cl)c3)c2c1	5.04	5.36	5.33	–
Clc1cccc(Nc2ncnc3ccc(NCc4cccs4)cc23)c1	5.45	5.68	5.47	–
Clc1cccc(Nc2ncnc3ccc(NCc4cccc(Br)n4)cc23)c1	5.41	5.53	5.39	–
CSCCCNc1ccc2ncnc(Nc3cccc(Cl)c3)c2c1	5.05	5.42	5.29	–
O=C(/C=C/c1cccs1)Nc1ccc2ncnc(Nc3cccc(Cl)c3)c2c1	4.98	5.03	5.06	–
